Data: patent US9605002B2, “5,5-heteroaromatic anti-infective compounds” (priority 2012, dated 2017)
Converted amounts (≈) assume the structure as drawn.

What was measured:
[1] = system: M. tuberculosis (Mtb) H37Rv; test: Microplate Alamar Blue Assay (MABA), GAS media, replicating Mtb; format: cell-based, Mycobacterium tuberculosis; details: Mycobacterium tuberculosis; GAS (glycerol-alanine-salt) media, replicating H37Rv; read-out: GAS media: replicating H37Rv Mtb: MIC 90
[2] = system: M. tuberculosis (Mtb) H37Rv; test: Microplate Alamar Blue Assay (MABA), 7H12 media, replicating Mtb; format: cell-based; details: Mycobacterium tuberculosis, 7H12 media (no glycerol), read-out: 7H12 media: Replicating H37Rv Mtb: MIC 90
[3] = system: VERO kidney epithelial cells; test: VERO toxicity assessment; details: Chlorocebus sabaeus, Vero, read-out: VERO: IC50

Row | SMILES | MIC90 [1] [µM] | MIC90 [2] [µM] | IC50 [3] [µM]
1 | CCc1nc2sc(C)cn2c1C(=O)OC [ND-009743] | < 32 | < 32 | < 32
2 | COC(=O)c1c(C)nc2sc(C)c(C)n12 [ND-009744] | < 32 | < 32 | < 32
3 | CCc1nc2sc(C)cn2c1C(=O)O [ND-009745] | < 32 | < 32 | < 32
4 | Cc1cn2c(C(=O)NCc3ccccc3)c(C)nc2s1 [ND-009749] | < 2 | < 2 | < 32
5 | Cc1cn2c(C(=O)NCc3cccc(F)c3)c(C)nc2s1 [ND-009762] | < 2 | < 2 | < 32
6 | COc1cccc(CNC(=O)c2c(C)nc3sc(C)cn23)c1 [ND-009763] | < 2 | < 2 | < 32
7 | COc1ccc(COC(=O)c2c(C)nc3sc(C)cn23)cc1 [ND-010050] | 2 to 10 | 10 to 20 (≈ 3.16 to 6.33 µg/mL) | < 32
8 | Cc1nn2c(C(=O)OCc3ccccc3)c(C)nc2s1 [ND-010475] | < 2 | 10 to 20 (≈ 2.87 to 5.75 µg/mL) | < 32
9 | Cc1cn2c(C(=O)NCc3ccccc3Cl)c(C)nc2s1 [ND-020001] | < 2 | < 2 | < 32
10 | Cc1cn2c(C(=O)NCc3cc(F)ccc3F)c(C)nc2s1 [ND-020002] | < 2 | < 2 | < 32
11 | Cc1cn2c(C(=O)NCc3ccc(F)cc3)c(C)nc2s1 [ND-020003] | < 2 | 2 to 10 (≈ 0.607 to 3.03 µg/mL) | < 32
12 | Cc1cn2c(C(=O)NCc3cc(F)cc(F)c3)c(C)nc2s1 [ND-020004] | < 2 | < 2 | < 32
13 | Cc1cn2c(C(=O)NCc3cc(Cl)cc(Cl)c3)c(C)nc2s1 [ND-020005] | < 2 | < 2 | < 32
14 | Cc1cn2c(C(=O)NCc3ccc(OC(F)(F)F)cc3)c(C)nc2s1 [ND-020006] | < 2 | < 2 | < 32
15 | Cc1cn2c(C(=O)NCc3cccc(OC(F)(F)F)c3)c(C)nc2s1 [ND-020007] | < 2 | < 2 | < 32
16 | Cc1cn2c(C(=O)NCc3cccc(C(F)(F)F)c3)c(C)nc2s1 [ND-020008] | < 2 | < 2 | < 32
17 | Cc1cn2c(C(=O)NCc3ccc(C(F)(F)F)cc3)c(C)nc2s1 [ND-020009] | < 2 | < 2 | < 32
18 | CCc1nc2sc(C)cn2c1C(=O)NCc1ccc(C(F)(F)F)cc1 [ND-020010] | < 2 | < 2 | < 32
19 | CCc1nc2sc(Cl)cn2c1C(=O)NCc1ccc(C(F)(F)F)cc1 [ND-020011] | < 2 | 2 to 10 (≈ 0.776 to 3.88 µg/mL) | < 32
20 | Cc1nc2sc(Cl)cn2c1C(=O)NCc1ccc(C(F)(F)F)cc1 [ND-020012] | < 2 | < 2 | < 32
21 | Cc1nc2sc(C)c(C)n2c1C(=O)NCc1ccc(C(F)(F)F)cc1 [ND-020013] | 2 to 10 | 10 to 20 (≈ 3.67 to 7.35 µg/mL) | < 32

Row | SMILES | MIC90 [1] [µM] | MIC90 [2] [µM] | IC50 [3] [µM]
22 | Cc1cn2c(C(=O)NCc3cccc(Cl)c3)c(C(F)(F)F)nc2s1 [ND-020014] | < 2 | 2 to 10 (≈ 0.748 to 3.74 µg/mL) | < 32
23 | Cc1nc2sc(C(F)(F)F)cn2c1C(=O)NCc1ccc(Cl)cc1 [ND-020015] | < 2 | 2 to 10 (≈ 0.748 to 3.74 µg/mL) | < 32
24 | Cc1cn2c(C(=O)NCc3ncc(C(F)(F)F)cc3Cl)c(C)nc2s1 [ND-020016] | < 2 | < 2 | < 32
25 | COc1cc(CNC(=O)c2c(C)nc3sc(C)cn23)ccn1 [ND-020017] | < 2 | 2 to 10 (≈ 0.633 to 3.16 µg/mL) | < 32
26 | Cc1cn2c(C(=O)NCc3ccc4c(c3)OCC4)c(C)nc2s1 [ND-020018] | < 2 | < 2 | < 32
27 | Cc1cn2c(C(=O)NCc3cccc(N(C)C)c3)c(C)nc2s1 [ND-020019] | < 2 | < 2 | < 32
28 | Cc1cn2c(C(=O)NCc3ccc(N(C)C)cc3)c(C)nc2s1 [ND-020020] | < 2 | < 2 | < 32
29 | CNc1ccc(CNC(=O)c2c(C)nc3sc(C)cn23)cc1 [ND-020021] | < 2 | < 2 | < 32
30 | Cc1nc2sc(Cl)cn2c1C(=O)NCc1ccc(N(C)C)cc1 [ND-020022] | < 2 | < 2 | < 32
31 | CCc1nc2sc(Cl)cn2c1C(=O)NCc1ccc(N(C)C)cc1 [ND-020023] | < 2 | < 2 | < 32
32 | Cc1nc2sc(C(F)(F)F)cn2c1C(=O)NCc1ccc(N(C)C)cc1 [ND-020024] | < 2 | 2 to 10 (≈ 0.765 to 3.82 µg/mL) | < 32
33 | Cc1cn2c(C(=O)NCc3ccc(N(C)C)cc3)c(C(F)(F)F)nc2s1 [ND-020025] | < 2 | 2 to 10 (≈ 0.765 to 3.82 µg/mL) | < 32
34 | CCc1nc2sc(C)cn2c1C(=O)NCc1ccc(N(C)C)cc1 [ND-020026] | < 2 | < 2 | < 32
35 | COc1ccc(CNC(=O)c2c(C)nc3sc(C)cn23)cc1 [ND-020027] | < 2 | < 2 | < 32
36 | CCOc1ccc(CNC(=O)c2c(C)nc3sc(C)cn23)cc1 [ND-020028] | < 2 | < 2 | < 32
37 | CCOc1cccc(CNC(=O)c2c(C)nc3sc(C)cn23)c1 [ND-020029] | < 2 | < 2 | < 32
38 | Cc1cn2c(C(=O)NCc3cccc(OC(C)C)c3)c(C)nc2s1 [ND-020030] | < 2 | < 2 | < 32
39 | Cc1cn2c(C(=O)NCc3ccc(C(C)(C)C)cc3)c(C)nc2s1 [ND-020031] | < 2 | < 2 | < 32
40 | Cc1cn2c(C(=O)NCc3cccc(N4CCOCC4)c3)c(C)nc2s1 [ND-020032] | < 2 | 2 to 10 (≈ 0.741 to 3.7 µg/mL) | < 32
41 | Cc1cn2c(C(=O)NCc3ccc(N4CCOCC4)cc3)c(C)nc2s1 [ND-020033] | < 2 | 2 to 10 (≈ 0.741 to 3.7 µg/mL) | 20 to 32
42 | Cc1cn2c(C(=O)NCc3ccc(N4CCOCC4)c(F)c3)c(C)nc2s1 [ND-020034] | < 2 | 2 to 10 (≈ 0.777 to 3.88 µg/mL) | < 32

Row | SMILES | MIC90 [1] [µM] | MIC90 [2] [µM] | IC50 [3] [µM]
43 | Cc1cn2c(C(=O)NCc3ccc(N4CCOCC4)c(Cl)c3)c(C)nc2s1 [ND-020035] | < 2 | < 2 | 20 to 32
44 | Cc1cn2c(C(=O)NCc3cccc(N4CCOCC4)n3)c(C)nc2s1 [ND-020036] | < 2 | 2 to 10 (≈ 0.743 to 3.71 µg/mL) | < 32
45 | CCc1nc2sc(C)cn2c1C(=O)NCc1ccc(N2CCOCC2)c(F)c1 [ND-020037] | < 2 | 2 to 10 (≈ 0.805 to 4.02 µg/mL) | < 32
46 | Cc1nc2sc(C(F)(F)F)cn2c1C(=O)NCc1ccc(N2CCOCC2)c(F)c1 [ND-020038] | 2 to 10 | 2 to 10 (≈ 0.885 to 4.42 µg/mL) | < 32
47 | Cc1nc2sc(Cl)cn2c1C(=O)NCc1ccc(N2CCOCC2)c(F)c1 [ND-020039] | < 2 | < 2 | < 32
48 | Cc1cn2c(C(=O)Nc3ccc(Oc4ccc(C(F)(F)F)cc4)cc3)c(C)nc2s1 [ND-020040] | < 2 | < 2 | < 32
49 | Cc1nc2sc(Cl)cn2c1C(=O)Nc1ccc(Oc2ccc(C(F)(F)F)cc2)cc1 [ND-020041] | < 2 | < 2 | < 32
50 | Cc1cn2c(C(=O)Nc3ccc(-c4ccc(C(F)(F)F)cc4)cc3)c(C)nc2s1 [ND-020042] | < 2 | 2 to 10 (≈ 0.831 to 4.15 µg/mL) | < 32
51 | CCc1nc2sc(C)cn2c1C(=O)NCc1ccc(-c2ccc(C(F)(F)F)cc2)cc1 [ND-020043] | < 2 | 2 to 10 (≈ 0.887 to 4.43 µg/mL) | < 32
52 | Cc1cn2c(C(=O)Nc3ccc(-c4ccc(C(F)(F)F)cc4)nc3)c(C)nc2s1 [ND-020044] | 2 to 10 | 2 to 10 (≈ 0.833 to 4.16 µg/mL) | < 32
53 | Cc1cn2c(C(=O)NCc3cccc(N4CCC(c5ccc(F)cc5)CC4)c3)c(C)nc2s1 [ND-020045] | < 2 | 2 to 10 (≈ 0.925 to 4.63 µg/mL) | 20 to 32
54 | CCc1nc2sc(C)cn2c1C(=O)NCc1ccc(N2CCC(c3ccc(F)cc3)CC2)cc1 [ND-020046] | < 2 | < 2 | 10 to 20
55 | Cc1cn2c(C(=O)NCc3cccc(N4CCN(c5ccc(F)cc5)CC4)c3)c(C)nc2s1 [ND-020047] | < 2 | 2 to 10 (≈ 0.927 to 4.64 µg/mL) | 20 to 32
56 | CCc1nc2sc(C)cn2c1C(=O)NCc1ccc(N2CCN(c3ccc(F)cc3)CC2)cc1 [ND-020048] | < 2 | < 2 | 10 to 20
57 | Cc1cn2c(C(=O)NCc3ccc4ocnc4c3)c(C)nc2s1 [ND-020049] | < 2 | < 2 | < 32
58 | CC1=Nn2c(nc(C)c2C(=O)NCc2ccc(Oc3ccc(F)cc3)cc2)C1 [ND-020050] | < 2 | 2 to 10 (≈ 0.757 to 3.78 µg/mL) | 20 to 32
59 | Cc1nn2c(C(=O)NCc3ccc(Oc4ccc(F)cc4)cc3)c(C)nc2o1 [ND-020051] | 2 to 10 | 2 to 10 (≈ 0.761 to 3.8 µg/mL) | 20 to 32
60 | Cc1nn2c(C(=O)NCc3ccc(Oc4ccc(F)cc4)cc3)c(C)nc2s1 [ND-020052] | < 2 | 2 to 10 (≈ 0.793 to 3.96 µg/mL) | 20 to 32
61 | CCc1nc2sc(Cl)cn2c1C(=O)NCc1ccc(Oc2ccc(Cl)cc2)cc1 [ND-020053] | < 2 | < 2 | 20 to 32
62 | CCc1nc2sc(C)cn2c1C(=O)NCc1ccc(Oc2ccc(C(F)(F)F)cc2)cc1 [ND-020054] | < 2 | < 2 | 20 to 32
63 | Cc1cn2c(C(=O)NCc3ccc(Oc4ccc(C(F)(F)F)cc4)cc3)c(C)nc2s1 [ND-020055] | < 2 | < 2 | 20 to 32
